The test system of the assay is PDE4 from human U-937 cells. In words: PDE4 Inhibition Assay. It counts as biochemical. The note with it: 1 μM cAMP, [3H]-cAMP, read-out: Potency Class (Inhibitory Concentration) in the PDE4 assay. The essentials: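 U-937-derived PDE4 (2 μg/ml) was preincubated with compound in Tris-HCl pH 7.5 for 15 min at 25° C. It then reacted 20 min with cAMP plus [^3H]-cAMP. [^3H]-AMP was converted to [^3H]-adenosine by nucleotidase, resin-separated and counted; IC50 came from percent inhibition.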

For `COc1ccc(N2CCN(C(=O)Cc3n[nH]c([N+](=O)[O-])n3)[C@@H](Cc3ccccc3)C2)cc1OC1CCCC1` [Compound 325, (S)-1-(2-benzyl-4-(3-(cyclopentyloxy)-4-methoxyphenyl)piperazin-1-yl)-2-(5-nitro-1H-1,2,4-triazol-3-yl)ethanone], the IC50 is below 200 nM.

With `COc1ccc(N2CCN(C(=O)Cc3ncccn3)[C@@H](Cc3ccccc3)C2)cc1OC1CCCC1` [Compound 388, (S)-1-(2-benzyl-4-(3-(cyclopentyloxy)-4-methoxyphenyl)piperazin-1-yl)-2-(pyrimidin-2-yl)ethanone], the IC50 is below 200 nM. For `COc1ccc(N2CCN(C(=O)[C@@H]3CNC(=O)N3)[C@@H](Cc3ccccc3)C2)cc1OC1CCCC1` [Compound 292, (S)-4-((S)-2-benzyl-4-(3-(cyclopentyloxy)-4-methoxyphenyl)piperazine-1-carbonyl)imidazolidin-2-one] the value was below 200 nM. For `COc1ccc(N2CCN(C(=O)C(C)(C)O)[C@@H](Cc3ccccc3)C2)cc1OC1CCCC1` [Compound 282, (S)-1-(2-benzyl-4-(3-(cyclopentyloxy)-4-methoxyphenyl)piperazin-1-yl)-2-hydroxy-2-methylpropan-1-one] the value was 200 to 1000 nM.

For the compound `COc1ccc(N2CCN(CCC(N)=O)[C@@H](Cc3ccccc3)C2)cc1OC(C)C` [Compound 272, (S)-3-(2-benzyl-4-(3-isopropoxy-4-methoxyphenyl)piperazin-1-yl)propanamide], the IC50 lay within 200 to 1000 nM. Next, `CCc1nn(C2CCC2)c2cc(N3CCN(CCC(N)=O)[C@@H](Cc4ccccc4)C3)ccc12` [Compound 276, (S)-3-(2-benzyl-4-(1-cyclobutyl-3-ethyl-1H-indazol-6-yl)piperazin-1-yl)propanamide]: above 1000 nM; `COc1ccc(N2CCN(C(=O)c3ccc(O)c(O)c3)[C@@H](Cc3ccccc3)C2)cc1OC1CCCC1` [Compound 286, (S)-(2-benzyl-4-(3-(cyclopentyloxy)-4-methoxyphenyl)piperazin-1-yl)(3,4-dihydroxyphenyl)methanone]: above 1000 nM; `COc1ccc(N2CCN(C(=O)Cc3nn[nH]n3)[C@@H](Cc3ccccc3)C2)cc1OC1CCC1` [Compound 335, (S)-1-(2-benzyl-4-(3-cyclobutoxy-4-methoxyphenyl)piperazin-1-yl)-2-(2H-tetrazol-5-yl)ethanone]: below 200 nM.

As to `Cc1nc(CC(=O)N2CCN(c3ccc(OC(F)F)c(OC4CCC4)c3)C[C@@H]2Cc2ccccc2)n[nH]1` [Compound 345, (S)-1-(2-benzyl-4-(3-cyclobutoxy-4-(difluoromethoxy)phenyl)piperazin-1-yl)-2-(5-methyl-1H-1,2,4-triazol-3-yl)ethanone], the IC50 is below 200 nM. For `COc1ccc(N2CCN(C(=O)Cc3n[nH]c(C)n3)[C@@H](CN3CCOCC3)C2)cc1OC1CCCC1` [Compound 256, (S)-1-(4-(3-(cyclopentyloxy)-4-methoxyphenyl)-2-(morpholinomethyl)piperazin-1-yl)-2-(5-methyl-1H-1,2,4-triazol-3-yl)ethanone] the value was below 200 nM; for `O=C(Cc1c[nH]cn1)N1CCN(c2ccc(OC(F)F)c(OC3CCC3)c2)C[C@@H]1Cc1ccccc1` [Compound 344, (S)-1-(2-benzyl-4-(3-cyclobutoxy-4-(difluoromethoxy)phenyl)piperazin-1-yl)-2-(1H-imidazol-4-yl)ethanone], below 200 nM. For `COc1ccc(N2CCN(C(=O)CCc3cnc[nH]3)[C@@H](Cc3ccccc3)C2)cc1OC1CCCC1` [Compound 239, (S)-1-(2-benzyl-4-(3-(cyclopentyloxy)-4-methoxyphenyl)piperazin-1-yl)-3-(1H-imidazol-5-yl)propan-1-one] the value was above 1000 nM.

For the compound `COc1ccc(N2CCN(C(=O)Cc3cncs3)[C@@H](Cc3ccccc3)C2)cc1OC1CCCC1` [Compound 291, (S)-1-(2-benzyl-4-(3-(cyclopentyloxy)-4-methoxyphenyl)piperazin-1-yl)-2-(thiazol-5-yl)ethanone], the IC50 lay in the range of 200 to 1000 nM.
